Test results as given in patent US10945980B2, “Treatment for myopia” (The University of Newcastle, priority 2016, dated 2021).

Assays:
[1] = test system: form deprivation myopia in guinea pigs; assay: Oral (gavage) L-arginine in form deprivation myopia; type: in vivo, guinea pig (Cavia porcellus)
Excerpt: Guinea pigs (pigmented variety, Cavia porcellus) were bred, housed, and raised as described in Example 1. The University of Newcastle Animal Care and ethics Committee approved all procedures.
Two experimental protocols were employed (Table 3). In Experiment 1, 12 animals wore a diffuser over one eye (form-deprivation, FD) for […]. This period reliably induces myopia in the deprived eye compared to the untreated fellow eye. Seven of these animals also concurrently received a single gavage of L-arginine (200 mg/kg/day) each day at 9:30 am while briefly anaesthetised. […]
At the end of the FD period, at 12 days of age (Experiment 1) or at […] (Experiment 2), after the morning gavage treatment, both eyes were cyclopleged and 1.25 hours later, refractive error was measured. […]
After cycloplegia was induced, refractive error was measured in each eye using streak retinoscopy as previously described (Howlett and McFadden, 2007; McFadden et al., 2004). The spherical equivalent was calculated as the average of the horizontal and vertical meridians (see Howlett and McFadden, 2006). Next, ocular length was measured using high frequency ultrasound (20 MHz) as previously described (McFadden et al, 2004). At least 20 traces were recorded for each eye and distances were averaged for at least 10 of these recordings. […]

nNOS = nNOS immunohistochemistry of retinal whole mounts 3 hours after intravitreal injection; type: in vivo, guinea pig (Cavia porcellus)
Procedure: Two experimental protocols were used. In Experiment 1, young guinea pigs were randomly divided into three drug treatment groups: no injection (n=14), vehicle (n=14) and 0.2 mM L-arginine (n=16). Animals in the latter two groups received a daily 10 μl intravitreal injection in one eye at 7, 8 and 9 days of age (Table 2). […] The fellow eye was untreated. At 10 days of age, the −6D lens was removed, animals were cyclopleged and refractive error was measured in both eyes. In Experiment 2, sixteen guinea pigs received an intravitreal injection of either vehicle (n=8) or 0.2 mM L-arginine (n=8) into their untreated eye at 16 days of age (Table 2). Injections were made 1 hour after the beginning of their 12 hr light cycle. 3 hours after injection, light adapted animals were euthanized, and the injected eye removed and processed using immunohistochemistry.
To make the L-arginine (LA), 217.75 mg of LA (Sigma, A5006) was added to 10 ml of isotonic saline (Pfizer) to create 125 mM fresh stock each day. Hydrochloric acid was used to lower the stock to a pH of 7.4. The stock was diluted with isotonic saline to produce a final dose of 0.185 mM of LA (˜0.2 mM) at the level of the retina based on a vitreous volume of 125 μl and an injection volume of 10 μl. Vehicle injections consisted of 10 μl of isotonic saline (pH 7.4).
Guinea pigs were briefly anaesthetised with isoflurane in oxygen and intravitreal injections were made through the pars plana ˜1 mm posterior to the limbus at an angle of approximately 40° to avoid contact with the crystalline lens and retina. Drugs were delivered using a 0.3 ml syringe (Diabetic BD UltraFine II) with a 31 gauge needle. After the injection, antibiotic gel (Conoptal) was applied lightly to the cornea, and animals recovered rapidly in a warm darkened box.
In Experiment 2, three hours after their intravitreal injection, animals were anaesthetised with isoflurane in oxygen and then euthanized with an […] injection of sodium pentobarbitone (160 mg/kg; Lethabarb) into the heart. The eye that had received treatment was then enucleated. […]

N=C(N)NCCC[C@H](N)C(=O)O [L-arginine]
relative elongation (FD eye vs untreated eye) ([1]; Experiment 1: 200 mg/kg once daily gavage, 7 days FD, p=0.714): 42±30 μm | eye lengths vs animals only fed water ([1]; Experiment 2: 25 mg/kg twice daily gavage, 3 days FD, both the FD eye and the fellow eye): smaller eye lengths than animals only fed water | density of NOS displaced amacrine cells (DACs) vs vehicle injected eyes (nNOS; single intravitreal 0.2 mM L-arginine, 3 hours after injection, each eccentricity from the optic nerve, p<0.001): significantly higher density | density of Type I amacrine cells expressing nNOS vs vehicle injected group (nNOS; single intravitreal 0.2 mM L-arginine, 3 hours after injection, p<0.001): significantly higher density | increase of expression of nNOS in the retina (nNOS; single intravitreal injection of L-arginine (0.2 mM)): approximately 20%
